Data published in article PMC9606572, “Development of an innovative in vivo model of PJI treated with DAIR” (Frontiers in Medicine, 2022).
In brackets after ≈: the same amount, converted by molar mass.

What was measured:
[1] = Renal tolerance of vancomycin regimen (serum creatinine); format: in vivo, New Zealand White rabbits
Experimental: Creatinine serum concentrations were measured in group A animals using a Fuji Dri-Chem analyzer (Fujifilm Corporation, Tokyo, Japan) with CRE-PIII slides, as per the manufacturer’s instructions.

[2] = tested on: MRSA strain ATCC 33591; format: in vivo, New Zealand White rabbits; conditions: surgical debridement at day 7 followed by 50 mg/kg IV vancomycin twice a day for 7 days, N = 5
Description: Following general anesthesia, the animals were installed in a Class II biosafety cabinet. The operated leg was disinfected twice with 2% chlorhexidine gluconate alcohol solution (Qualiphar, Bornem, Belgium) and the leg was sterile draped. The joint was approached through a medial parapatellar incision. The medial meniscus was resected and 5 mm of the medial tibial plateau was removed using a high-speed burr. The cut height was confirmed using a spacer block. The bone surface was then further prepared using a custom tibial punch. After irrigation of the joint space with sterile saline, the final implants were impacted. The joint was then further irrigated with sterile saline. The joint capsule, subcutaneous tissues, and skin were closed separately with running sutures using a 3/0 polyester thread. The joints of groups B and C animals were inoculated by intra-articular injection of 100 μl of a 6.5 log10 CFU/ml MRSA suspension after the closure of the subcutaneous tissues. […] The wounds were then covered using an antiseptic spray and dressed.
Animals of groups C were operated on 1 week after the initial surgery. Following anesthesia, the operated leg was disinfected twice with 2% chlorhexidine gluconate alcohol solution and the leg was draped. The initial approach was re-used. Pus samples were collected immediately after the capsule was breached and stored on ice until analyzed. […]

[3] = tested on: Methicillin-Resistant Staphylococcus aureus strain ATCC 33591; conditions: MRSA ATCC 33591; determined previously; cited from earlier work
Experimental: The Methicillin-Resistant Staphylococcus aureus strain ATCC 33591, previously used in our laboratory for biofilms models, was used. […] Bacteria were grown overnight on tryptic soy agar (TSA) plates from frozen stock. Some colonies were then suspended in sterile PBS, adjusted to an OD620 nm of 0.5 (∼8 log10 CFU), and diluted 1:10 in PBS. The bacterial suspension was stored at 4°C until inoculation (1.5–2 h). Serial dilutions of the bacterial inoculum were plated on TSA to confirm the bacterial inoculum.

[4] = Vancomycin serum pharmacokinetics and therapeutic monitoring in rabbits; conditions: 50 mg/kg IV every 12 h, Roche VANC3 assay

Question: For `CN[C@H](CC(C)C)C(=O)N[C@H]1C(=O)N[C@@H](CC(N)=O)C(=O)N[C@H]2C(=O)N[C@H]3C(=O)N[C@H](C(=O)N[C@H](C(=O)O)c4cc(O)cc(O)c4-c4cc3ccc4O)[C@H](O)c3ccc(c(Cl)c3)Oc3cc2cc(c3O[C@@H]2O[C@H](CO)[C@@H](O)[C@H](O)[C@H]2O[C@H]2C[C@](C)(N)[C@H](O)[C@H](C)O2)Oc2ccc(cc2Cl)[C@H]1O` [vancomycin, Vancomycin], which renal toxicity ([1]; NZW rabbits, 50 mg/kg IV vancomycin twice a day) is on record?
Answer: No renal toxicity was observed

Question: And the “serum creatinine concentrations throughout the experiment” value ([1]; group A NZW rabbits, 50 mg/kg IV vancomycin twice a day for 7 days, Fuji Dri-Chem analyzer)?
Answer: stable

Question: What about the “bacterial counts in all samples (bone, pus, implant) except the joint capsule, group C versus group B” value ([2]; 5.5 log10 CFU MRSA inoculum, p < 0.0001) of the same molecule?
Answer: significantly reduced

Question: What about the “mean difference in CFU counts in capsule samples, group C versus group B” value ([2]; not statistically significant, p = 0.35) of the same molecule?
Answer: 0.74 log10 CFU/g

Question: And the MBEC [3]?
Answer: > 1024 µg/mL

Question: What about the MIC [3] of the same molecule?
Answer: 1 µg/mL (≈ 0.69 µM)

Question: And the “vancomycin serum concentration 12 h after the injections” value ([4]; group A NZW rabbits)?
Answer: ~0 µg/mL

Question: And the “AUC0–12 h following the first vancomycin injection” value ([4]; group A non-infected NZW rabbits, 1st injection, trapezoid rule, mean, N = 5, SD 15.79)?
Answer: 213.0 µg·h/mL
